For one data set, the system named is HepG2. The data set is described as follows: Antiproliferative activity against human HepG2 cells incubated for 48 hrs by MTT assay. Type of data set: functional, cell-based. As to conditions: HepG2, 48 h. In general terms: Tetrazolium assays rely on reduction of a dye to a coloured formazan, in cell work by metabolically active cells.
The test system of the next data set is HCT-116. The data set is described as follows: Antiproliferative activity against human HCT-116 cells incubated for 48 hrs by MTT assay. It is filed as functional, cell-based. As to conditions: HCT-116, 48 h.
Another data set concerns HeLa. Kind of data set: cells. As to conditions: Homo sapiens, 48 h.
The test system of data set [1] is B16-F10. The data set is described as follows: Antiproliferative activity against mouse B16-F10 cells incubated for 48 hrs by MTT assay. As to conditions: B16-F10, 48 h. It is filed as functional, cell-based.
For data set [2], the system named is B16-F10. The data set is described as follows: Induction of cell cycle arrest in mouse B16-F10 cells assessed as accumulation at S phase at 20 nM incubated for 24 hrs by PI staining based flow cytometry (reference value: 21.79 %). Type of data set: functional. In general terms: A flow cytometer gives signals particle by particle.
For data set [3], the system named is B16-F10. Kind of data set: Induction of apoptosis in mouse B16-F10 cells assessed as necrotic cells at 20 nM incubated for 48 hrs by annexinV-FITC/PI staining based flow cytometry (reference value: 0.064 %). Type of data set: functional.
Data set [4] deals with B16-F10. Kind of data set: Induction of cell cycle arrest in mouse B16-F10 cells assessed as accumulation at G1 phase at 20 nM incubated for 24 hrs by PI staining based flow cytometry (reference value: 52.77 %). Type of data set: functional.
Data set [5] relates to B16-F10. The data set is described as follows: Induction of apoptosis in mouse B16-F10 cells assessed as late apoptotic cells at 20 nM incubated for 48 hrs by annexinV-FITC/PI staining based flow cytometry (reference value: 2.06 %). Type of data set: functional.
The subject of data set [6] is B16-F10. Kind of data set: Induction of cell cycle arrest in mouse B16-F10 cells assessed as accumulation at G2 phase at 20 nM incubated for 24 hrs by PI staining based flow cytometry (reference value: 23.04 %). It is filed as functional.
Data set [7] has as its system B16-F10. Kind of data set: Induction of apoptosis in mouse B16-F10 cells assessed as viable cells at 20 nM incubated for 48 hrs by annexinV-FITC/PI staining based flow cytometry (reference value: 93.6 %). It is filed as functional. As to conditions: read-out: Activity.
Data set [8] deals with B16-F10. The data set is described as follows: Induction of apoptosis in mouse B16-F10 cells assessed as early apoptotic cells at 20 nM incubated for 48 hrs by annexinV-FITC/PI staining based flow cytometry (reference value: 4.25 %). It is filed as functional.
In the next data set the target is Tubulin. The data set is described as follows: Inhibition of tubulin polymerization (unknown origin). Type of data set: protein-complex assay, Homo sapiens.
Data set [9] is described as follows: Toxicity in C57 mouse allografted with mouse B16-F10 cells assessed as body weight loss at 10 mg/kg, ip administered consecutively for 14 days. It is filed as organism-based. As to conditions: in vivo, 336 h, time 14 day.
In data set [10] the test system is B16-F10. Kind of data set: Immunomodulatory activity in mouse B16-F10 cells allografted in C57 mouse assessed as decrease in PD-L1 level at 10 mg/kg, ip administered consecutively for 14 days relative to control. It is filed as functional. Details: scale not given: the % may be the effect or the level left. As to conditions: time 14 day.
For data set [11], the system named is B16-F10. The data set is described as follows: Immunomodulatory activity in mouse B16-F10 cells allografted in C57 mouse assessed as increase in CD3-positive CD8-positive cells at 10 mg/kg, ip administered consecutively for 14 days (reference value: 6.66 %). It is filed as functional. As to conditions: time 14 day.
In data set [12] the test system is B16-F10. Kind of data set: Antitumor activity against mouse B16-F10 cells allografted in C57 mouse assessed as tumor growth inhibition at 10 mg/kg, ip administered consecutively for 14 days. Type of data set: functional. As to conditions: B16-F10, 336 h, time 14 day, read-out: TGI.

Description for HeLa: Antiproliferative activity against human HeLa cells incubated for 48 hrs by MTT assay

As to `COc1cc(C(=O)N2c3ccccc3Cc3cc(Cl)ccc32)cc(OC)c1OC`, the IC50 with HepG2 was determined as 69 nM; in the data set on HCT-116, 191 nM; in the data set with HeLa it was 78 nM; with B16-F10 [1], 106 nM.

Regarding `COc1cc(C(=O)N2c3cc(Br)ccc3Cc3c2ccc(C)c3C)cc(OC)c1OC`, the half-inhibitory concentration (IC50) was determined as 107 nM with HepG2, 129 nM in the data set with HCT-116, 104 nM with HeLa and 85 nM with B16-F10 [1].

In the case of `COC(=O)c1ccc2c(c1)N(C(=O)c1cc(OC)c(OC)c(OC)c1)c1ccccc1C2`, the IC50 in the data set with HepG2 worked out at 3280 nM; in the data set on HCT-116, 9370 nM; in the data set with HeLa, 8350 nM; in the data set on B16-F10 [1], 7170 nM.

On to `COC(=O)c1ccc2c(c1)N(C(=O)c1cc(OC)c(OC)c(OC)c1)c1cc(F)ccc1C2`, for which the IC50 in the data set on HepG2 is 630 nM; with HCT-116 it was over 10000 nM; with HeLa, 1160 nM; in the data set with B16-F10 [1], 1260 nM.

For the compound `COc1cc(C(=O)N2c3cc(C)ccc3Cc3ccc(F)cc32)cc(OC)c1OC`, the IC50 with HepG2 was 30 nM; in the data set with HCT-116, 240 nM; in the data set on HeLa, 188 nM; with B16-F10 [1], 274 nM.

Regarding `COc1cc(C(=O)N2c3ccccc3Cc3ccc(F)cc32)cc(OC)c1OC`, the IC50 in the data set with HepG2 was over 10000 nM; with HCT-116, over 10000 nM; in the data set with HeLa, over 10000 nM; with B16-F10 [1], 6900 nM.

Consider `COc1cc(C(=O)N2c3cc(F)ccc3Cc3ccc(F)cc32)cc(OC)c1OC`, for which the IC50 in the data set with HepG2 is 661 nM; with HCT-116, over 10000 nM; with HeLa, 2050 nM; with B16-F10 [1], 1980 nM.

Regarding `COc1ccc2c(c1)Cc1ccccc1N2C(=O)c1cc(OC)c(OC)c(OC)c1`, the IC50 worked out at 91 nM in the data set with HepG2, 103 nM with HCT-116, 105 nM with HeLa and 80 nM in the data set with B16-F10 [1].

As to `COc1cc2c(c(OC)c1OC)-c1ccc(OC)c(=O)cc1[C@@H](NC(C)=O)CC2` [COLCHICINE], the Activity is on record as 33.02% in the data set on B16-F10 [2]; 0.466% with B16-F10 [3]; 10.06% in the data set with B16-F10 [4]; 5.68% in the data set with B16-F10 [5]; 55.16% in the data set with B16-F10 [6]; 12.4% in the data set with B16-F10 [8]. Besides, the results for the IC50 in the data set on HepG2, in the data set on HeLa and in the data set on B16-F10 [1] were 25 nM, 126 nM and 88 nM, respectively. Also, the viability at 0.02 µM in the data set with B16-F10 [7] turned out to be 81.5%.

As to `COc1cc(C(=O)N2c3cc(Cl)ccc3Cc3ccc(Cl)cc32)cc(OC)c1OC`, the IC50 in the data set with HepG2 was 716 nM; in the data set on HCT-116, over 10000 nM; in the data set on HeLa, 1030 nM; in the data set with B16-F10 [1] it was 1020 nM.

With `COc1cc(C(=O)N2c3ccccc3Cc3c(C)cccc32)cc(OC)c1OC`, the IC50 in the data set on HepG2 amounted to 102 nM; in the data set on HCT-116 it was 172 nM; in the data set on HeLa, 909 nM; in the data set with B16-F10 [1], 91 nM.

As to `COc1cc(C(=O)N2c3cc(F)ccc3Cc3cc4ccccc4cc32)cc(OC)c1OC`, the IC50 in the data set with HepG2 is 216 nM; in the data set on HCT-116 it was over 10000 nM; in the data set on HeLa it was 676 nM; with B16-F10 [1] it was 752 nM.

On to `COc1cc(C(=O)N2c3ccccc3Cc3ccc(Cl)cc32)cc(OC)c1OC`, for which the IC50 with HepG2 is 58 nM; with HCT-116, 427 nM; with HeLa it was 189 nM; with B16-F10 [1] it was 211 nM.

On to `COc1cc(C(=O)N2c3ccccc3Cc3c(C)ccc(C)c32)cc(OC)c1OC`, for which the IC50 was found to be 30 nM with HepG2, 62 nM in the data set on HCT-116, 49 nM with HeLa and 56 nM with B16-F10 [1].

In the case of `COc1cc(C(=O)N2c3ccccc3Cc3ccc4ccccc4c32)cc(OC)c1OC`, the IC50 in the data set on HepG2, in the data set on HCT-116, with HeLa and in the data set with B16-F10 [1] was over 10000 nM throughout.

As to `COc1cc(C(=O)N2c3ccccc3Cc3cccc(OC)c32)cc(OC)c1OC`, the IC50 in the data set on HepG2 worked out at 161 nM; in the data set with HCT-116, 208 nM; with HeLa, 117 nM; with B16-F10 [1], 92 nM.

In the case of `COc1cc(C(=O)N2c3ccccc3Cc3cc(F)ccc32)cc(OC)c1OC`, the IC50 was 35 nM in the data set with HepG2, 256 nM in the data set with HCT-116, 98 nM in the data set on HeLa and 144 nM with B16-F10 [1].

With `COc1cc(C(=O)N2c3ccccc3Cc3cc(C)ccc32)cc(OC)c1OC`, the IC50 with HepG2 is 83 nM; with HCT-116, 128 nM; in the data set with HeLa, 131 nM; in the data set with B16-F10 [1], 84 nM.

With `COc1cc(C(=O)N2c3ccccc3Cc3ccccc32)cc(OC)c1OC`, the IC50 was determined as 160 nM in the data set on HepG2; 1600 nM at Tubulin; 257 nM in the data set on HCT-116; 1200 nM with HeLa; 146 nM in the data set on B16-F10 [1].

For `Cc1c(COc2cc(OCc3cccc(C#N)c3)c(CNC(C)(C)C(=O)O)cc2Cl)cccc1-c1ccccc1`, the Activity entry in [9] was “Non-Toxic”; in the data set with B16-F10 [10] it was about 45%; in the data set on B16-F10 [11] it was 14.6%. The inhibition in vivo at 10 mg/kg in the data set with B16-F10 [12] was 19%.

Take `COc1cc(C(=O)N2c3ccccc3Cc3c(Cl)cccc32)cc(OC)c1OC`: the concentration for half-maximal inhibition (IC50) in the data set with HepG2 stood at 71 nM; in the data set with HCT-116, 250 nM; in the data set with HeLa it was 86 nM; with B16-F10 [1], 157 nM.

`COc1cc(C(=O)N2c3ccccc3Cc3ccc(C(F)(F)F)cc32)cc(OC)c1OC`: the IC50 in the data set with HepG2 came out at 2860 nM; in the data set on HCT-116, 6870 nM; with HeLa, 6870 nM; with B16-F10 [1], 5520 nM.

`COc1cc(C(=O)N2c3ccccc3C(c3ccccc3)c3ccccc32)cc(OC)c1OC`: the IC50 in the data set on HepG2, in the data set with HCT-116, with HeLa and in the data set on B16-F10 [1] was over 10000 nM each time.

For the compound `COc1cc(C(=O)N2c3cccc(Cl)c3Cc3c(C)ccc(C)c32)cc(OC)c1OC`, the IC50 in the data set on HepG2 turned out to be 184 nM; with HCT-116 it was 429 nM; in the data set on HeLa it was 586 nM; with B16-F10 [1], 845 nM.

As usually defined, the IC50 is the midpoint of a concentration-inhibition curve.

The values above are taken from ChEMBL document CHEMBL5325396, “Discovery of Novel Acridane-Based Tubulin Polymerization Inhibitors with Anticancer and Potential Immunomodulatory Effects” (J Med Chem, 2023).
